From patent US12448347B2, “Polymorphic forms of (R)-oxybutynin hydrochloride” (APNIMED, INC. (DELAWARE), priority 2020, dated 2025)

Assays:
Assay type in all cases: physicochemical
[1] = DVS analysis (moisture sorption/desorption)
[2] = Solid form stability / interconversion on drying, storage or slurrying (XRPD); details: for XRPD pattern after prolonged slurrying: slurry in MIBK and in heptanes separately, RT (2 weeks)
[3] = Humidity stress in open containers with XRPD analysis; details: for XRPD form after humidity exposure / appearance of solids after humidity exposure: 24 hours, open container
Procedure: Samples of R-oxybutynin HCl Form B were exposed to 75% RH and 85% RH for 24 hours, in open containers.

[4] = Hygroscopicity of the isolated solids (observation); details: HCl

Row | Structure (SMILES) | hygroscopicity by DVS ([1]; DVS analysis) | physical form of post-DVS sample (XRPD) ([1]; XRPD after DVS) | weight gain (DVS) ([1]; between 75% and 95% RH) | weight change upon desorption (DVS) ([1]; desorption from 95% to 5% RH) | weight gain (DVS) ([1]; from 5% RH to 95% RH) | XRPD pattern after prolonged slurrying [2] | XRPD form after humidity exposure ([3]; 75% RH) | appearance of solids after humidity exposure ([3]; 75% RH) | XRPD form after humidity exposure ([3]; 85% RH) | appearance of solids after humidity exposure ([3]; 85% RH) | outcome of humidity stress ([3]; 93% RH) | hygroscopicity of isolated solids [4] | crystalline form obtained after drying ([2]; dried under vacuum at RT for 24 hours) | crystalline form obtained upon storage ([2]; storage at ambient conditions) | crystalline form obtained after high temperature drying (XRPD) ([2]; vacuum drying at 50° C. (24 h, 2 days in Table 2), HCl)
1 | CCN(CC)CC#CCOC(=O)[C@](O)(c1ccccc1)C1CCCCC1.Cl [Form B, (R)-oxybutynin HCl] | hygroscopic | Form B remained | 23% | All the weight gained was lost | 26.6% | Form C diffraction patterns were observed | consistent with Form B | remained free flowing | composed of Form B | not free flowing | deliquesced | – | – | – | –
2 | CCN(CC)CC#CCOC(=O)[C@](O)(c1ccccc1)C1CCCCC1.Cl [Form C, (R)-oxybutynin HCl] | – | – | – | – | – | – | – | – | – | – | – | non-hygroscopic | – | – | –
3 | CCN(CC)CC#CCOC(=O)[C@](O)(c1ccccc1)C1CCCCC1.Cl [Form A, (R)-oxybutynin HCl] | – | – | – | – | – | Form C diffraction patterns were observed | – | – | – | – | – | hygroscopic | Form B | Form B | Form C was isolated
